Test results taken from ChEMBL document CHEMBL1153031, “Evaluation of anti-inflammatory effect of synthetic 1,5-bis(4-acetoxy-3-methoxyphenyl)-1,4-pentadien-3-one, HB2” (Bioorg Med Chem, 2009).

What was measured:
Format in all cases: functional
Settings in all cases: route intraperitoneal
Mus musculus [1] = assay: Antiinflammatory activity against carrageenan-induced paw oedema in mouse at 1 mg/kg, ip treated 30 mins before carrageenan challenge measured after 6 hrs by plethysmometry analysis
Mus musculus [2] = assay: Antiinflammatory activity against bradykinin-induced paw oedema in mouse at 1 mg/kg, ip treated 30 mins before bradykinin challenge measured after 15 mins by plethysmometry analysis
Mus musculus [3] = assay: Antiinflammatory activity against bradykinin-induced paw oedema in mouse at 1 mg/kg, ip treated 30 mins before bradykinin challenge measured after 30 mins by plethysmometry analysis
Mus musculus [4] = assay: Antiinflammatory activity against bradykinin-induced paw oedema in mouse at 1 mg/kg, ip treated 30 mins before bradykinin challenge measured after 60 mins by plethysmometry analysis
Mus musculus [5] = assay: Antiinflammatory activity against bradykinin-induced paw oedema in mouse at 1 mg/kg, ip treated 30 mins before bradykinin challenge measured after 120 mins by plethysmometry analysis
Mus musculus [6] = assay: Antiinflammatory activity against bradykinin-induced paw oedema in mouse at 1 mg/kg, ip treated 30 mins before bradykinin challenge measured after 240 mins by plethysmometry analysis
Mus musculus [7] = assay: Antiinflammatory activity against carrageenan-induced paw oedema in mouse at 1 mg/kg, ip treated 30 mins before carrageenan challenge measured after 1 hr by plethysmometry analysis
Mus musculus [8] = assay: Antiinflammatory activity against carrageenan-induced paw oedema in mouse at 1 mg/kg, ip treated 30 mins before carrageenan challenge measured after 2 hrs by plethysmometry analysis
Mus musculus [9] = assay: Antiinflammatory activity against carrageenan-induced paw oedema in mouse at 1 mg/kg, ip treated 30 mins before carrageenan challenge measured after 4 hrs by plethysmometry analysis
Mus musculus [10] = assay: Antiinflammatory activity against carrageenan-induced paw oedema in mouse at 1 mg/kg, ip treated 30 mins before carrageenan challenge measured after 5 hrs by plethysmometry analysis

`COc1ccc2c(c1)c(CC(=O)O)c(C)n2C(=O)c1ccc(Cl)cc1` [INDOMETHACIN] showed an inhibition in vivo at 1 mg/kg (Mus musculus [1]) of 5.66%, an inhibition in vivo at 1 mg/kg (Mus musculus [2]) of 5% and an inhibition in vivo at 1 mg/kg (Mus musculus [3]) of 3.5%. For the same molecule, the inhibition in vivo at 1 mg/kg (Mus musculus [4]) was 2.5%, the inhibition in vivo at 1 mg/kg (Mus musculus [5]) was 2.09% and the inhibition in vivo at 1 mg/kg (Mus musculus [6]) was 1.9%. It also gave an inhibition in vivo at 1 mg/kg (Mus musculus [7]) of 12.6%, an inhibition in vivo at 1 mg/kg (Mus musculus [8]) of 10.8% and an inhibition in vivo at 1 mg/kg (Mus musculus [9]) of 7.14%. For the same molecule, the inhibition in vivo at 1 mg/kg (Mus musculus [10]) was 6.28%.
